The text below walks through data of US9862730B2, “Imidazothiadiazole derivatives as protease activated receptor 4 (PAR4) inhibitors for treating platelet aggregation” (BRISTOL-MYERS SQUIBB COMPANY, priority 2012, dated 2018).

Assay [1] concerns the target T1, PAR4 (Homo sapiens (Human), UniProt Q96RI0). The assay is described as follows: Gamma thrombin induced platelet aggregation assay in PRP (PRP assay). The format is cell-based. An excerpt: The compounds of the current invention can be tested in vitro for their ability to inhibit platelet aggregation induced by gamma-thrombin as shown in Example C. Gamma-thrombin, a proteolytic product of alpha-thrombin which no longer interacts with PAR1, selectively cleaves and activates PAR4 (Soslau, G. et al., “Unique pathway of thrombin-induced platelet aggregation mediated by glycoprotein Ib”, J. Biol. Chem., 276:21173-21183 (2001)). Platelet aggregation can be monitored in a 96-well microplate aggregation assay format or using standard platelet aggregometer. The aggregation assay can also be employed to test the selectivity of the compound for inhibiting platelet aggregation induced by PAR4 agonist peptides, PAR1 agonist peptide, ADP, or thromboxane analogue U46619.
The platelet rich plasma was isolated by centrifugation at 170 g for 14 minutes.
The ability of the compounds of the current invention to inhibit platelet aggregation induced by gamma-thrombin was tested in a 96-well microplate aggregation assay format. Briefly, PRP or washed platelet suspension (100 μl) was pre-incubated for 5 minutes at room temperature with varying concentrations of compounds. Aggregation was initiated by ˜10-50 nM gamma thrombin (Haematologic Technologies, Essex Junction, Vt.), which was titrated daily to achieve 80% platelet aggregation. Refludan at 1 U/mL (Berlex, Montville, N.J.) was added to the gamma thrombin sample to prevent PAR1 activation induced by residual alpha-thrombin contamination. The plate was then placed into a 37° C. Molecular Devices (Sunnyvale, Calif.) SPECTRAMAX® Plus Plate Reader. […] Data was collected with SOFTMAX® 4.71 software. The plate also included an untreated control sample which served as ODmax, while buffer containing no platelets was the ODmin. Platelet aggregation was determined by subtracting the ODmax from the ODmin for the 100% aggregation value. In experimental samples, the observed transmission was subtracted from the minimum value and then compared to the 100% aggregation value to determine the percentage aggregation. IC50 values are determined using Excel Fit software.
As indicated above, the PRP assay, an in vitro assay, measures the PAR4 antagonist activity of compounds tested as described in Example C.

The target of assay [2] is T1, PAR4. In words: FLIPR assay in PAR4-expressing HEK293 cells (PAR4 antagonist activity, calcium mobilization). The class given is cell-based. The conditions noted are these: FLIPR assay as described in Example A. An outline of the steps:
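HEK293 cells stably expressing human PAR4 (also endogenous PAR1) in HBSS/10 mM HEPES, 0.67% DMSO final. Compound added and read for agonist activity, then 30 min room temperature before PAR4 agonist peptide; intracellular calcium mobilization monitored by FDSS/FLIPR.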
(A change in cytosolic calcium serves as a functional read-out for many receptors and channels.)

T1 sequence (Q96RI0 18-385): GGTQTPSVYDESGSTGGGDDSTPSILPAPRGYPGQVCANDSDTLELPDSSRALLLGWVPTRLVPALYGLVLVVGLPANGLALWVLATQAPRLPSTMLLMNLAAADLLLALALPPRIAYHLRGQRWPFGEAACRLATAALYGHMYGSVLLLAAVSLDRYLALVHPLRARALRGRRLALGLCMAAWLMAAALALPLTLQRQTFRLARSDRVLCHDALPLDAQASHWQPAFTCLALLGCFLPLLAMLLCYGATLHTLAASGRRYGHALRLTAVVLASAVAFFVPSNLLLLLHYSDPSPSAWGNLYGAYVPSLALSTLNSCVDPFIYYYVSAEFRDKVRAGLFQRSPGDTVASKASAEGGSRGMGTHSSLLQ

Turning to `CSc1nn2cc(-c3nc4ccc(OC(C)C)cc4o3)nc2s1` [Example 161], the half-inhibitory concentration (IC50) – broadly, the point on the concentration scale where inhibition reaches its midpoint – was > 30000 nM against PAR4 [1] and 79.9 nM at PAR4 [2].
For the compound `COc1nn2cc(-c3oc4c(OC)c(OC)ccc4c3C)nc2s1` [Example 36], the IC50 on PAR4 [1] was > 30000 nM; on PAR4 [2], 1660 nM.
For the compound `COc1cc(OCc2cccc(OC(=O)c3ccccc3)c2)c2cc(-c3cn4nc(OC)sc4n3)oc2c1` [Example 355], the IC50 at PAR4 [1] was determined as 33.3 nM; on PAR4 [2], 1.65 nM.
Regarding `COc1cc(OCc2ccc(F)cc2)c2cc(-c3cn4nc(Br)sc4n3)oc2c1` [Example 302], the IC50 was > 30000 nM against PAR4 [1] and 195 nM at PAR4 [2].
For `COc1cc(OCc2cccc(OCc3ccccc3CCc3ccccc3)c2)c2cc(-c3cn4nc(OC)sc4n3)oc2c1` [Example 364], the figures for the IC50 at PAR4 [1] and on PAR4 [2] were 5820 nM and 10.5 nM, respectively.
Taken in the same sequence, the figures for `COc1cc(OCc2cccc(OCc3ccccn3)c2)c2cc(-c3cn4nc(OC)sc4n3)oc2c1` [Example 319] were 124 nM and 9.2 nM.
In the case of `CCc1nn2cc(-c3nc4ccc(OC)cc4o3)nc2s1` [Example 39], the IC50 against PAR4 [1] was > 30000 nM; at PAR4 [2], 220 nM.
Taken in the same sequence, the figures for `COc1cc(COc2cccc(COc3cc(OC)cc4oc(-c5cn6nc(OC)sc6n5)cc34)c2)cc(OCc2ccccc2)c1` [Example 373] were 2500 nM and 7.63 nM.
As to `Brc1nn2cc(-c3cc4ccccc4o3)nc2s1` [Example 68], the IC50 at PAR4 [1] was found to be 16700 nM; on PAR4 [2], 55.3 nM.
`COc1cc(OCc2cc(F)cc(OCc3ccccc3)c2)c2cc(-c3cn4nc(OC)sc4n3)oc2c1` [Example 350]: the IC50 worked out at 85.7 nM on PAR4 [1] and 0.76 nM at PAR4 [2].
Regarding `CSc1nn2cc(-c3nc4c(OC[C@@H]5CCCN5C(=O)[C@H](NC(=O)c5ccccc5)c5ccccc5)cccc4o3)nc2s1` [Example 337, N—((R)-2-((S)-2-(((2-(2-(Methylthio)imidazo[2,1-b][1,3,4]thiadiazol-6-yl)benzo[d]oxazol-4-yl)oxy)methyl)pyrrolidin-1-yl)-2-oxo-1-phenylethyl)benzamide], the half-inhibitory concentration (IC50) is > 30000 nM at PAR4 [1] and 401 nM on PAR4 [2].
For the compound `COc1cc(OCc2cccc(OCc3cccc(C(F)(F)F)c3F)c2)c2cc(-c3cn4nc(OC)sc4n3)oc2c1` [Example 316], the IC50 was 93.3 nM on PAR4 [1] and 4.17 nM on PAR4 [2].
With `COc1ccc2nc(-c3cn4nc(OC)sc4n3)oc2c1` [Example 164], the figures for the IC50 on PAR4 [1] and at PAR4 [2] were 9160 nM and 15.4 nM, respectively.
For the compound `COc1cc(OCc2cccc(OCc3cccc(C)c3)c2)c2cc(-c3cn4nc(OC)sc4n3)oc2c1` [Example 386], the IC50 is 55 nM on PAR4 [1] and 1.77 nM at PAR4 [2].
For `COc1cc(OCc2cc(Cl)cc(OCc3ccccc3)c2)c2cc(-c3cn4nc(OC)sc4n3)oc2c1` [Example 402], the IC50 against PAR4 [1] is 151 nM; on PAR4 [2], 6.2 nM.
In the case of `COc1cc(OCc2cccc(OCc3ccc(Oc4ccccc4)cc3)c2)c2cc(-c3cn4nc(OC)sc4n3)oc2c1` [Example 372], the figures for the IC50 at PAR4 [1] and on PAR4 [2] were 3410 nM and 2.27 nM, respectively.
In the case of `CCOc1nn2cc(-c3nc4ccccc4s3)nc2s1` [Example 27], the half-maximal inhibitory concentration (IC50) at PAR4 [1] was > 30000 nM; at PAR4 [2], 1780 nM.
As to `CCc1nn2cc(-c3nc4cc(F)c(F)cc4o3)nc2s1` [Example 38], the IC50 on PAR4 [1] is > 30000 nM; on PAR4 [2] it was 66.6 nM.
Take `COc1cc(OCc2ccc(F)cc2)c2cc(-c3cn4nc(SC)sc4n3)oc2c1` [Example 301]: the IC50 stood at 2960 nM against PAR4 [1] and 23 nM on PAR4 [2].
As for `COc1ccc2oc(-c3cn4nc(SC)sc4n3)cc2c1` [Example 16], the values for the IC50 against PAR4 [1] and on PAR4 [2] were > 30000 nM and 369 nM, respectively.
In the same order, the values of `COc1cc(OCc2cccc(OCc3ccccc3)c2)c2cc(-c3cn4nc(C(C)(F)F)sc4n3)oc2c1` [Example 347] are 579 nM and 2.74 nM.
As to `COc1cc(OCc2cccc(OCc3ccccc3F)c2)c2cc(-c3cn4nc(OC)sc4n3)oc2c1` [Example 318], the IC50 came to 36.5 nM on PAR4 [1] and 1.92 nM at PAR4 [2].
Consider `COc1cc(OCc2cccc(OCc3ccc(OC(F)(F)F)cc3)c2)c2cc(-c3cn4nc(OC)sc4n3)oc2c1` [Example 394], for which the results for the IC50 on PAR4 [1] and at PAR4 [2] were 616 nM and 3.68 nM, respectively.
Taken in the same sequence, the figures for `COc1cc(COc2cc(OC)cc3oc(-c4cn5nc(OC)sc5n4)cc23)cc(OCc2ccccc2)c1` [Example 404] were 22.5 nM and 2.44 nM.
For `COCCOc1cccc2oc(-c3cn4nc(Br)sc4n3)cc12` [Example 252], the IC50 against PAR4 [1] is > 30000 nM; at PAR4 [2], 121 nM.
Taken in the same sequence, the figures for `COc1cc(OCc2cccc(OCc3cccc(OCc4ccccc4)c3)c2)c2cc(-c3cn4nc(OC)sc4n3)oc2c1` [Example 383] were 594 nM and 8.68 nM.
Taken in the same sequence, the figures for `COc1cc(OCc2cccc(OCc3cc(F)cc(C(F)(F)F)c3)c2)c2cc(-c3cn4nc(OC)sc4n3)oc2c1` [Example 356] were 109 nM and 1.66 nM.
With `CSc1nn2cc(-c3cc4cccc(C)c4o3)nc2s1` [Example 22], the IC50 against PAR4 [1] turned out to be 8760 nM; at PAR4 [2], 217 nM.
On to `COc1nn2cc(-c3nc4ccccc4s3)nc2s1` [Example 5, 2-(2-Methoxyimidazo[2,1-b][1,3,4]thiadiazol-6-yl)benzo[d]thiazole], for which the half-maximal inhibitory concentration (IC50) against PAR4 [1] was > 30000 nM; on PAR4 [2] it was 351 nM.
In the case of `COc1nn2cc(-c3nc4cc(F)ccc4o3)nc2s1` [Example 135], the IC50 at PAR4 [1] is > 30000 nM; at PAR4 [2] it was 49.6 nM.
In the same order, the values of `COc1cc(OCc2cccc(OCc3ccccc3)c2)c2cc(-c3cn4nc([C@H](C)F)sc4n3)oc2c1` [Example 407] are 462 nM and 1.12 nM.
As for `COc1cc(OCc2cccc(OCc3ccc(C(C)(C)C)cc3)c2)c2cc(-c3cn4nc(OC)sc4n3)oc2c1` [Example 393], the values for the half-inhibitory concentration (IC50) against PAR4 [1] and on PAR4 [2] were 2500 nM and 35.9 nM, respectively.
Take `COc1cc(OCc2cccc(OCc3cccc(Oc4ccccc4)c3)c2)c2cc(-c3cn4nc(OC)sc4n3)oc2c1` [Example 384]: the results for the IC50 on PAR4 [1] and at PAR4 [2] were 568 nM and 5.05 nM, respectively.
Regarding `COc1cc(OC)c2c(C)c(-c3cn4nc(OC)sc4n3)oc2c1` [Example 72], the figures for the IC50 against PAR4 [1] and on PAR4 [2] were 2330 nM and 3.91 nM, respectively.
`COc1cccc2cc(-c3cn4nc(SC)sc4n3)oc12` [Example 14]: the IC50 against PAR4 [1] turned out to be 9440 nM; at PAR4 [2], 8.68 nM.
Taken in the same sequence, the figures for `COc1cc(OCc2cccc(OCc3ccc(F)cc3)c2)c2cc(-c3cn4nc(OC)sc4n3)oc2c1` [Example 346] were 147 nM and 1.68 nM.
As to `COc1cc(OCc2ccc(F)cc2)c2cc(-c3cn4nc(OC)sc4n3)oc2c1` [Example 303], the IC50 at PAR4 [1] came out at 3190 nM; at PAR4 [2], 5.68 nM.
`COc1nn2cc(-c3cc4ccc(OC)c(OC)c4o3)nc2s1` [Example 10, 6-(6,7-Dimethoxybenzofuran-2-yl)-2-methoxyimidazo[2,1-b][1,3,4]thiadiazole]: the IC50 at PAR4 [1] is > 30000 nM; on PAR4 [2], 1800 nM.
Take `COc1cc(OCc2cccc(OCc3ccnc(Cl)c3)c2)c2cc(-c3cn4nc(OC)sc4n3)oc2c1` [Example 320]: the IC50 came out at 75.5 nM on PAR4 [1] and 3.93 nM on PAR4 [2].
